Tests used:
Experiment in all cases: relative viability (nuclei count vs DMSO), 5 days (fraction); higher = more cells survive
Idelalisib + Navitoclax = compound: CC[C@H](Nc1ncnc2[nH]cnc12)c1nc2cccc(F)c2c(=O)n1-c1ccccc1 [Idelalisib] + CC1(C)CCC(c2ccc(Cl)cc2)=C(CN2CCN(c3ccc(C(=O)NS(=O)(=O)c4ccc(N[C@H](CCN5CCOCC5)CSc5ccccc5)c(S(=O)(=O)C(F)(F)F)c4)cc3)CC2)C1 [Navitoclax] (partner 0.5 µM)
Method in brief: (§1)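 Lung cancer cell lines, seeded in 1536-well plates, were treated the following day by pin tool with a single drug or with five library-drug doses (not always all listed) in √10 steps on top of a fixed anchor-drug dose. Cells were fixed and nuclei stained in one step after 5 days, and nuclei were counted. Relative viability is the nuclei count for treated wells divided by that for vehicle wells, reported as medians of duplicate plates.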

Idelalisib + Olaparib = compound: CC[C@H](Nc1ncnc2[nH]cnc12)c1nc2cccc(F)c2c(=O)n1-c1ccccc1 [Idelalisib] + O=C(c1cc(Cc2n[nH]c(=O)c3ccccc23)ccc1F)N1CCN(C(=O)C2CC2)CC1 [Olaparib] (partner 8 µM)
Method in brief: as §1

Pemetrexed + Decitabine = compound: Nc1nc2[nH]cc(CCc3ccc(C(=O)N[C@@H](CCC(=O)O)C(=O)O)cc3)c2c(=O)[nH]1 [Pemetrexed] + Nc1ncn([C@H]2C[C@H](O)[C@@H](CO)O2)c(=O)n1 [Decitabine] (partner 2 µM)
Method in brief: as §1

Idelalisib + Pemetrexed = compound: CC[C@H](Nc1ncnc2[nH]cnc12)c1nc2cccc(F)c2c(=O)n1-c1ccccc1 [Idelalisib] + Nc1nc2[nH]cc(CCc3ccc(C(=O)N[C@@H](CCC(=O)O)C(=O)O)cc3)c2c(=O)[nH]1 [Pemetrexed] (partner 0.2 µM)
Method in brief: as §1

Cell Line | relative viability (Idelalisib + Navitoclax; first compound 0.04 µM) | relative viability (Idelalisib + Navitoclax; first compound 0.1265 µM) | relative viability (Idelalisib + Navitoclax; first compound 0.4 µM) | relative viability (Idelalisib + Navitoclax; first compound 1.265 µM) | relative viability (Idelalisib + Navitoclax; first compound 4 µM) | relative viability (Idelalisib + Olaparib; first compound 0.04 µM) | relative viability (Idelalisib + Olaparib; first compound 0.1265 µM) | relative viability (Idelalisib + Olaparib; first compound 0.4 µM) | relative viability (Idelalisib + Olaparib; first compound 1.265 µM) | relative viability (Idelalisib + Olaparib; first compound 4 µM) | relative viability (Pemetrexed + Decitabine; first compound 0.002 µM) | relative viability (Pemetrexed + Decitabine; first compound 0.006325 µM) | relative viability (Pemetrexed + Decitabine; first compound 0.02 µM) | relative viability (Pemetrexed + Decitabine; first compound 0.06325 µM) | relative viability (Pemetrexed + Decitabine; first compound 0.2 µM) | relative viability (Idelalisib + Pemetrexed; first compound 0.04 µM) | relative viability (Idelalisib + Pemetrexed; first compound 0.1265 µM) | relative viability (Idelalisib + Pemetrexed; first compound 0.4 µM) | relative viability (Idelalisib + Pemetrexed; first compound 1.265 µM) | relative viability (Idelalisib + Pemetrexed; first compound 4 µM)
HOP-62 | 1.01 | 1.03 | 1.01 | 1.29 | 1.03 | 0.306 | 0.538 | 0.442 | 0.387 | 0.498 | 0.198 | 0.262 | 0.249 | 0.204 | 0.2 | 0.353 | 0.331 | 0.284 | 0.278 | 0.248
LC-2-ad | 0.479 | 0.4 | 0.395 | 0.417 | 0.306 | 0.691 | 0.728 | 0.764 | 0.805 | 0.734 | 0.807 | 0.771 | 0.779 | 0.755 | 0.316 | 0.282 | 0.276 | 0.25 | 0.267 | 0.26
SW 900 | – | – | – | – | – | 0.904 | 0.842 | 0.729 | 0.93 | 0.665 | 0.342 | 0.433 | 0.553 | 0.377 | 0.424 | 0.493 | 0.488 | 0.476 | 0.509 | 0.406
NCI-H322M | 1.2 | 1.2 | 1.09 | 1.25 | 1.04 | 0.652 | 0.813 | 0.781 | 0.747 | 0.77 | 0.722 | 0.642 | 0.655 | 0.794 | 0.612 | 0.648 | 0.634 | 0.639 | 0.628 | 0.623
SK-LU-1 | 0.871 | 1.05 | 0.988 | 0.683 | 0.799 | 0.584 | 0.492 | 0.41 | 0.424 | 0.464 | 0.617 | 0.659 | 0.699 | 0.642 | 0.603 | 0.86 | 1.06 | 0.943 | 0.919 | 0.967
NCI-H1734 | 0.746 | 0.841 | 0.654 | 0.724 | 0.584 | 0.578 | 0.578 | 0.561 | 0.607 | 0.704 | 0.485 | 0.472 | 0.52 | 0.517 | 0.427 | 0.417 | 0.455 | 0.399 | 0.363 | 0.364
HCC-44 | 1.01 | 0.925 | 0.871 | 1.07 | 0.927 | 1.05 | 0.998 | 0.962 | 1.04 | 1.05 | 0.854 | 0.909 | 1.02 | 0.922 | 0.905 | 0.684 | 0.664 | 0.652 | 0.586 | 0.687
NCI-H1703 | 1.15 | 1.05 | 0.922 | 1.13 | 0.501 | 0.459 | 0.436 | 0.365 | 0.388 | 0.237 | – | – | – | – | – | – | – | – | – | –
NCI-H2170 | 0.665 | 0.613 | 0.524 | 0.598 | 0.509 | 0.606 | 0.679 | 0.643 | 0.558 | 0.515 | 0.436 | 0.48 | 0.458 | 0.462 | 0.459 | 0.292 | 0.254 | 0.268 | 0.262 | 0.29
NCI-H1395 | 1.53 | 1.11 | 1.05 | 1.04 | 0.982 | 0.456 | 0.455 | 0.445 | 0.43 | 0.41 | 0.681 | 0.71 | 0.85 | 0.697 | 0.74 | 0.915 | 0.859 | 0.804 | 0.83 | 0.748
NCI-H1355 | 0.982 | 0.947 | 0.701 | 0.774 | 0.667 | 0.78 | 0.694 | 0.632 | 0.776 | 0.673 | 0.33 | 0.354 | 0.336 | 0.332 | 0.355 | 1.03 | 1.04 | 0.926 | 1.09 | 1.01
NCI-H1650 | 1.15 | 1.39 | 1.08 | 1.15 | 0.748 | 0.793 | 0.865 | 0.768 | 0.789 | 0.654 | 0.426 | 0.32 | 0.545 | 0.249 | 0.317 | 0.276 | 0.43 | 0.373 | 0.382 | 0.319
IA-LM | 0.905 | 0.856 | 1.01 | 1.08 | 0.919 | 0.711 | 0.952 | 0.747 | 1.02 | 0.93 | – | – | – | – | – | – | – | – | – | –
NCI-H1666 | 0.892 | 0.928 | 0.835 | 0.804 | 0.69 | 0.704 | 0.758 | 0.733 | 0.747 | 0.724 | 0.637 | 0.724 | 0.712 | 0.594 | 0.612 | 0.821 | 0.835 | 0.844 | 0.847 | 0.996
HCC-78 | 0.762 | 0.648 | 0.682 | 0.797 | 0.505 | 0.78 | 0.855 | 0.553 | 0.781 | 0.585 | – | 0.685 | 0.777 | 0.324 | 0.307 | 0.664 | 0.956 | 0.87 | 0.86 | 0.935
H3255 | 0.617 | 0.513 | 0.506 | 0.415 | 0.38 | 0.567 | 0.555 | 0.534 | 0.573 | 0.513 | 0.494 | 0.581 | 0.681 | 0.535 | 0.454 | 0.692 | 0.551 | 0.55 | 0.561 | 0.488
NCI-H23 | 0.843 | 0.872 | 0.718 | 0.765 | 0.606 | 0.286 | 0.289 | 0.336 | 0.29 | 0.307 | 0.287 | 0.307 | 0.322 | 0.325 | 0.318 | 0.64 | 0.619 | 0.422 | 0.53 | 0.509

— the supplement of paper PMC10307832
